# Data taken from ChEMBL document CHEMBL1152236 (Bioorg Med Chem, 2008).
# What was measured:
# Carbonic anhydrase 1 [1] = molecular target: T1, Carbonic anhydrase 1 (Homo sapiens, UniProt P00915); assay: Inhibition of human carbonic anhydrase 1 esterase activity by spectrophotometry
# Carbonic anhydrase 2 [2] = molecular target: T2, Carbonic anhydrase 2 (Homo sapiens, UniProt P00918); assay: Inhibition of human carbonic anhydrase 2 esterase activity by spectrophotometry
# Carbonic anhydrase 1 [3] = molecular target: T1, Carbonic anhydrase 1; assay: Inhibition of human carbonic anhydrase 1 esterase activity by noncompetitive Lineweaver-Burke plot
# Carbonic anhydrase 2 [4] = molecular target: T2, Carbonic anhydrase 2; assay: Inhibition of human carbonic anhydrase 2 esterase activity by uncompetitive Lineweaver-Burke plot
# Carbonic anhydrase 2 [5] = molecular target: T2, Carbonic anhydrase 2; assay: Inhibition of human carbonic anhydrase 2 esterase activity by non-competitive Lineweaver-Burke plot
# Carbonic anhydrase 1 [6] = molecular target: T1, Carbonic anhydrase 1; assay: Inhibition of human carbonic anhydrase 1 esterase activity by competitive Lineweaver-Burke plot
# Carbonic anhydrase 1 [7] = molecular target: T1, Carbonic anhydrase 1; assay: Inhibition of human carbonic anhydrase 1 esterase activity by uncompetitive Lineweaver-Burke plot
# Carbonic anhydrase 2 [8] = molecular target: T2, Carbonic anhydrase 2; assay: Inhibition of human carbonic anhydrase 2 esterase activity by competitive Lineweaver-Burke plot
# T1 sequence (P00915 whole entry): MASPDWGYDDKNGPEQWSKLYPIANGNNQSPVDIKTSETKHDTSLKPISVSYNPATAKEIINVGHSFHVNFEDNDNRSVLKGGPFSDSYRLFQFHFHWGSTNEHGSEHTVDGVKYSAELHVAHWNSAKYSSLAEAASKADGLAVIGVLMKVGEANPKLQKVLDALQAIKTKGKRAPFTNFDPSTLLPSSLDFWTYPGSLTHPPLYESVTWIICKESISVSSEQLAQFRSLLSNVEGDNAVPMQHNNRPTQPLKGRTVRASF
Structure (SMILES),IC50 (Carbonic anhydrase 1 [1]) [µM],IC50 (Carbonic anhydrase 2 [2]) [µM],Ki (Carbonic anhydrase 1 [3]) [µM],Ki (Carbonic anhydrase 2 [5]) [µM],Ki (Carbonic anhydrase 1 [6]) [µM],Ki (Carbonic anhydrase 1 [7]) [µM],Ki (Carbonic anhydrase 2 [8]) [µM],Ki (Carbonic anhydrase 2 [4]) [µM]
Cc1cccc(C(=O)O)c1O [HYDROXYTOLUIC ACID],3070,4700,11400,–,–,–,–,10600
O=C(O)c1cc(/N=N/c2ccc(S(=O)(=O)Nc3ccccn3)cc2)ccc1O [SULFASALAZINE],3.04,4.49,6.87,8.72,–,–,–,–
O=C(O)c1c(O)cc([N+](=O)[O-])cc1[N+](=O)[O-],7.64,–,14.8,–,–,–,–,–
CC(=O)Oc1ccccc1C(=O)O [ASPIRIN],2710,–,7530,–,–,–,–,–
O=C(O)c1cc(-c2ccc(F)cc2F)ccc1O [DIFLUNISAL],3.38,–,8.45,–,–,–,–,–
O=C(O)c1ccc(S(=O)(=O)O)cc1O,290,720,–,–,–,480,1060,–

# The next lines start with results.
IC50 (Carbonic anhydrase 1 [1]) [µM],IC50 (Carbonic anhydrase 2 [2]) [µM],Ki (Carbonic anhydrase 1 [3]) [µM],Ki (Carbonic anhydrase 2 [5]) [µM],Ki (Carbonic anhydrase 1 [6]) [µM],Ki (Carbonic anhydrase 1 [7]) [µM],Ki (Carbonic anhydrase 2 [8]) [µM],Structure (SMILES),Ki (Carbonic anhydrase 2 [4]) [µM]
420,290,–,1920,770,–,–,O=C(O)c1cc(S(=O)(=O)O)ccc1O [SULFOSALICYLIC],–
4.07,–,–,–,–,4.16,–,O=C(O)c1cc(Cl)ccc1O [5-CHLOROSALICYLIC ACID],–
130,750,240,1230,–,–,–,Nc1ccc(C(=O)O)c(O)c1 [AMINOSALICYLIC ACID],–
